# Measurements reported in publication PMC12203311, “Design, synthesis, in silico and in vitro evaluation of pyrrole–indole hybrids as dual tubulin and aromatase inhibitors with potent anticancer activities” (RSC Advances, 2025).
# Where two headings read alike, the source gives them in different places.
# Key:
# Assay in all cases: NCI60 five-dose screen
# NCI-H23 = format: cell-based; conditions: Homo sapiens, NCI-H23, NSC lung cancer
# SK-MEL-5 = format: cell-based, human; conditions: Homo sapiens
# SK-MEL-28 = format: cell-based; conditions: Homo sapiens, SK-MEL-28, melanoma
# HOP-62 = format: cell-based; conditions: Homo sapiens, HOP-62, NSC lung cancer
# U251 = format: cell-based; conditions: Homo sapiens, U-251, U251, CNS cancer
# RPMI-8226 = format: cell-based; conditions: Homo sapiens, RPMI-8226, leukemia
# SNB-19 = format: cell-based; conditions: Homo sapiens, SNB-19, CNS cancer
# HL-60 (TB) = format: cell-based; conditions: Homo sapiens, leukemia
# COLO 205 = format: cell-based, human; conditions: for CC50: read-out: LC50 (the source's name)
# MDA-MB-231/ATCC = format: cell-based; conditions: Homo sapiens, breast cancer
# SK-OV-3 = format: cell-based; conditions: Homo sapiens, SK-OV-3, ovarian cancer
# SNB-75 = format: cell-based; conditions: Homo sapiens, SNB-75, CNS cancer
# IGROV1 = format: cell-based; conditions: Homo sapiens, IGROV-1; IGROV1, ovarian cancer
# UACC-257 = format: cell-based; conditions: Homo sapiens, UACC-257, melanoma
# OVCAR-3 = format: cell-based; conditions: Homo sapiens, OVCAR-3, ovarian cancer
# NCI-H460 = format: cell-based; conditions: Homo sapiens, NCI-H460, NSC lung cancer
# SF-295 = format: cell-based; conditions: Homo sapiens, SF-295, CNS cancer
# A549/ATCC = format: cell-based; conditions: Homo sapiens, NSC lung cancer
# TK-10 = format: cell-based; conditions: Homo sapiens, TK-10, renal cancer
# K-562 = format: cell-based; conditions: Homo sapiens, K562, K-562, leukemia
# OVCAR-8 = format: cell-based; conditions: Homo sapiens, OVCAR-8, ovarian cancer
# ACHN = format: cell-based; conditions: Homo sapiens, renal cancer
# OVCAR-4 = format: cell-based; conditions: Homo sapiens, OVCAR-4, ovarian cancer
# UACC-62 = format: cell-based; conditions: Homo sapiens, UACC-62, melanoma
# DU-145 = format: cell-based; conditions: Homo sapiens, DU-145, prostate cancer
# NCI/ADR-RES = format: cell-based, human; conditions: ovarian cancer; for CC50: read-out: LC50 (the source's name)
# BT-549 = format: cell-based; conditions: Homo sapiens, BT-549, breast cancer
# MCF7 = format: cell-based; conditions: Homo sapiens, MCF7, breast cancer
# NCI-H522 = format: cell-based; conditions: Homo sapiens, NCI-H522, NSC lung cancer
# EKVX = format: cell-based; conditions: Homo sapiens, NSC lung cancer
# CAKI-1 = format: cell-based; conditions: Homo sapiens, CAKI-1, renal cancer
# SK-MEL-2 = format: cell-based; conditions: Homo sapiens, SK-MEL-2, melanoma
# HCT-15 = format: cell-based; conditions: Homo sapiens, HCT-15, colon cancer
# SN12C = format: cell-based; conditions: Homo sapiens, renal cancer
# PC-3 = format: cell-based; conditions: Homo sapiens, PC-3, prostate cancer
# LOX IMVI = format: cell-based; conditions: Homo sapiens, melanoma
# [1] = read-out: LC50 (the source's name)
compound,measurement,setting,value
"O=C(N/N=C/c1cc(Br)c[nH]1)c1[nH]c2ccc(Br)cc2c1-c1ccccc1 [Derivative 3e, (E)-5-Bromo-N′-((4-bromo-1H-pyrrol-2-yl)methylene)-3-phenyl-1H-indole-2-carbohydrazide]",GI50,NCI-H23,298 nM
same,CC50,NCI-H23; [1],26900 nM
same,CC50,"SK-MEL-5; SK-MEL-5, SK-MEL-5, melanoma, read-out: LC50 (the source's name)",1220 nM
same,GI50,"SK-MEL-5; SK-MEL-5, melanoma",195 nM
same,GI50,SK-MEL-28,612 nM
same,CC50,SK-MEL-28; [1],43900 nM
same,GI50,HOP-62,546 nM
same,CC50,HOP-62; [1],> 100000 nM
same,GI50,U251,418 nM
same,CC50,U251; [1],10100 nM
same,GI50,RPMI-8226,346 nM
same,CC50,RPMI-8226; [1],> 100000 nM
same,GI50,SNB-19,330 nM
same,CC50,SNB-19; [1],34500 nM
same,GI50,HL-60 (TB),327 nM
same,CC50,HL-60 (TB); [1],> 100000 nM
same,CC50,"COLO 205; COLO 205, colon cancer",884 nM
same,CC50,"COLO 205; Homo sapiens, COLO 205, COLO 205, colon cancer",890 nM
same,GI50,"COLO 205; Homo sapiens, COLO 205, colon cancer",192 nM
same,GI50,MDA-MB-231/ATCC,215 nM
same,CC50,MDA-MB-231/ATCC; [1],14300 nM
same,GI50,SK-OV-3,966 nM
same,CC50,SK-OV-3; [1],53800 nM
same,GI50,SNB-75,475 nM
same,CC50,SNB-75; [1],51000 nM
same,GI50,IGROV1,440 nM
same,GI50,UACC-257,1090 nM
same,CC50,UACC-257; [1],47000 nM
same,GI50,OVCAR-3,302 nM
same,CC50,OVCAR-3; [1],17300 nM
same,GI50,NCI-H460,353 nM
same,CC50,NCI-H460; [1],43200 nM
same,GI50,SF-295,254 nM
same,CC50,SF-295; [1],25900 nM
same,GI50,A549/ATCC,395 nM
same,CC50,A549/ATCC; [1],56400 nM
same,GI50,TK-10,4210 nM
same,CC50,TK-10; [1],44900 nM
same,GI50,K-562,393 nM
same,CC50,K-562; [1],> 100000 nM
same,GI50,OVCAR-8,304 nM
same,CC50,OVCAR-8; [1],18200 nM
same,GI50,ACHN,418 nM
same,CC50,ACHN; [1],23500 nM
same,GI50,OVCAR-4,1350 nM
same,CC50,OVCAR-4; [1],40500 nM
same,GI50,UACC-62,439 nM
same,CC50,UACC-62; [1],17700 nM
same,GI50,DU-145,352 nM
same,CC50,DU-145; [1],29700 nM
same,GI50,NCI/ADR-RES; Homo sapiens,197 nM
same,CC50,NCI/ADR-RES; Homo sapiens,970 nM
same,CC50,NCI/ADR-RES,971 nM
same,GI50,BT-549,314 nM
same,CC50,BT-549; [1],36200 nM
same,GI50,MCF7,294 nM
same,CC50,MCF7; [1],30700 nM
same,GI50,NCI-H522,185 nM
same,CC50,NCI-H522; [1],19100 nM
same,GI50,EKVX,620 nM
same,CC50,EKVX; [1],34300 nM
same,GI50,CAKI-1,329 nM
same,CC50,CAKI-1; [1],29000 nM
same,GI50,SK-MEL-2,322 nM
same,CC50,SK-MEL-2; [1],38100 nM
same,GI50,HCT-15,280 nM
same,CC50,HCT-15; [1],13500 nM
same,GI50,SN12C,310 nM
same,CC50,SN12C; [1],5490 nM
same,GI50,PC-3,382 nM
same,CC50,PC-3; [1],38100 nM
same,GI50,LOX IMVI,360 nM
same,CC50,LOX IMVI; [1],6980 nM
